Test results published in patent US20250179103A1, “6-OXODECAHYDROPYRROLO[1,2-A][1,5]DIAZOCINE AND 6-OXODECAHYDRO-4H-PYRROLO[2,1-D][1,5]THIAZOCINE DERIVATIVES AS STAT3 AND STAT6 MODULATORS FOR THE TREATMENT OF CANCER AND INFLAMMATORY CONDITIONS” (Recludix Pharma, Inc., priority 2022, published 2025).

Columns and labels:
[1] = target: T1, Recombinant STAT6 protein (STAT6(W123-T658)) (Homo sapiens, UniProt P42226); assay: STAT6 Fluorescence Polarization (FP) Assay; format: binding; conditions: STAT6(W123-T658) 250 nM, probe 5-FAM-ApYKPFQDLI-NH2 2 nM, 45-minute incubation
T1 construct: Recombinant STAT6 protein (STAT6(W123-T658))
T1 sequence (P42226 123-658): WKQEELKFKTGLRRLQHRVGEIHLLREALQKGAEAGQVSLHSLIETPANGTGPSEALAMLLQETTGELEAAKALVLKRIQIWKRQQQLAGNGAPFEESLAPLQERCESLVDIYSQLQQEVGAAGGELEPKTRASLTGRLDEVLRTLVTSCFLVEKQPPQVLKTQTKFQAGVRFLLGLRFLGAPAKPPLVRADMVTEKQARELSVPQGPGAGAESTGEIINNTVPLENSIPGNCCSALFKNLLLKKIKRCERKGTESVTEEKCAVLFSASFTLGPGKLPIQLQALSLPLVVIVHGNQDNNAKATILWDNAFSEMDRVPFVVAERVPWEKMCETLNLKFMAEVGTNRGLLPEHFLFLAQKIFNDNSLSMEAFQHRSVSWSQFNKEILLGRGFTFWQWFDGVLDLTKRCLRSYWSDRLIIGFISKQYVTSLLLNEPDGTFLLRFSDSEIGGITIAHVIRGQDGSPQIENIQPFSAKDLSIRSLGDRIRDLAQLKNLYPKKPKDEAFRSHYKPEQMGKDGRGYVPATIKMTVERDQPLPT
Method: STAT6 Fluorescence Polarization (FP) Assay
An FP assay was developed to determine IC50 values for test substances. Recombinant STAT6 protein (STAT6(W123-T658)) at 250 nM was combined with a fluorescently labeled, phosphotyrosine peptide probe (5-FAM-ApYKPFQDLI-NH2) at 2 nM in FP buffer (10 mM HEPES pH 7.4, 50 mM NaCl, 1 mM EDTA, 0.05% Tween 20.2 mM DTT). 50 μL of STAT6-probe mixture was added to serial diluted compounds in black, 96-well plates (Greiner BioOne 655076) to a final concentration of 1% DMSO. Reaction components were mixed, and FP was measured after 45-minute incubation at room temperature using a Tecan Spark multimode plate reader. FP signal (mP) was plotted against the log concentration of the test substances and IC50 values were calculated by nonlinear regression analysis using GraphPad Prism software. For STAT6 FP assay, A=≤300 nM; B=>300-3000 nM; C=>3-30 μM; and D=>30 μM.

[2] = target: T2, Recombinant STAT3 protein (STAT3(G127-I722)) (Homo sapiens, UniProt P40763); assay: STAT3 Fluorescence Polarization (FP) Assay; format: binding; conditions: STAT3(G127-I722) 25 nM, probe 5-FAM-GpYLPQTV-NH2 2 nM, 45-minute incubation
T2 construct: Recombinant STAT3 protein (STAT3(G127-I722))
Method: STAT3 Fluorescence Polarization (FP) Assay
An FP assay was developed to determine IC50 values for test substances. Recombinant STAT3 protein (STAT3(G127-I722)) at 25 nM was combined with a fluorescently labeled, phosphotyrosine peptide probe (5-FAM-GpYLPQTV-NH2) at 2 nM in FP buffer (10 mM HEPES pH 7.4, 50 mM NaCl, 1 mM EDTA, 0.05% Tween 20.2 mM DTT). 50 μL of STAT3-probe mixture was added to serial diluted compounds in black, 96-well plates (Greiner BioOne 655076) to a final concentration of 1% DMSO. Reaction components were mixed, and FP was measured after 45-minute incubation at room temperature using a Tecan Spark multimode plate reader. FP signal (mP) was plotted against the log concentration of the test substances and IC50 values were calculated by nonlinear regression analysis using GraphPad Prism software. For STAT3 FP assay, A=≤100 nM; B=>100-1000 nM; C=>1-10 μM; and D=>10 μM.

T2 sequence (P40763 127-722): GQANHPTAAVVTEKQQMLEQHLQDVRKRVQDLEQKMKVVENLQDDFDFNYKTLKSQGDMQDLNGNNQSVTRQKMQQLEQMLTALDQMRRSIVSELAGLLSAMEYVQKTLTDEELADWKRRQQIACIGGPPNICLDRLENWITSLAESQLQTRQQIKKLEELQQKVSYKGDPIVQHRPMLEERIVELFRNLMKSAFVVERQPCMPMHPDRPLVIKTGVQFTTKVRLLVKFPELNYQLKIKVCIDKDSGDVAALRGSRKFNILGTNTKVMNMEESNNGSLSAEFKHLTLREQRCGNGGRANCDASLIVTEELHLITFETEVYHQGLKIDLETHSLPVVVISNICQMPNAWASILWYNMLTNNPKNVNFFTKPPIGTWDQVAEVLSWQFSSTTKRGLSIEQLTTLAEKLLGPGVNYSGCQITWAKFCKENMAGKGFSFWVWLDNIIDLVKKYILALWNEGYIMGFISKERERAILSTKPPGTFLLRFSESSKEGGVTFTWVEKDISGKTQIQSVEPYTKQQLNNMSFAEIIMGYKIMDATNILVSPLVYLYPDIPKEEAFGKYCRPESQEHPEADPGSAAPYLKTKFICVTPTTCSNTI

| Compound | IC50 [1] | IC50 [2] |
| --- | --- | --- |
| CC(=O)N1CC[C@H]2CC[C@@H](C(=O)N3CC[C@H](C#N)[C@H]3c3ccccc3)N2C(=O)[C@@H](NC(=O)c2cc3cc(C(F)(F)P(=O)(O)O)ccc3s2)C1 (relative stereo) [Compound 207, ((2-(((5S,8S,10aR)-3-acetyl-8-((rel-trans)-3-cyano-2-phenylpyrrolidine-1-carbonyl)-6-oxodecahydropyrrolo[1,2-a][1,5]diazocin-5-yl)carbamoyl)benzo[b]thiophen-5-yl)difluoromethyl)phosphonic acid] | 300 to 3000 nM | 1000 to 10000 nM |
| CC(=O)N1CC[C@H]2CC[C@@H](C(=O)Nc3ccc4onc(C)c4c3)N2C(=O)[C@@H](NC(=O)c2cc3cc(C(F)(F)P(=O)(O)O)ccc3s2)C1 [Compound 68, ((2-(((5S,8S,10aR)-3-acetyl-8-((3-methylbenzo[d]isoxazol-5-yl)carbamoyl)-6-oxodecahydropyrrolo[1,2-a][1,5]diazocin-5-yl)carbamoyl)benzo[b]thiophen-5-yl)difluoromethyl)phosphonic acid] | 300 to 3000 nM | 100 to 1000 nM |
| N#C[C@H]1CN(C(=O)[C@@H]2CC[C@@H]3CN(C(=O)OCc4ccccc4)CC[C@H](NC(=O)c4ccc5ccc(C(F)(F)P(=O)(O)O)cc5c4)C(=O)N32)C[C@@H]1c1ccccc1 (relative stereo) [Compound 213, ((7-(((5S,8S,10aR)-2-((benzyloxy)carbonyl)-8-((rel-trans)-3-cyano-4-phenylpyrrolidine-1-carbonyl)-6-oxodecahydropyrrolo[1,2-a][1,4]diazocin-5-yl)carbamoyl)naphthalen-2-yl)difluoromethyl)phosphonic acid] | ≤ 300 nM | 1000 to 10000 nM |
| CC(=O)N1CC[C@H]2CC[C@@H](C(=O)N3C[C@@H](C#N)[C@](C)(c4ccccc4)C3)N2C(=O)[C@@H](NC(=O)c2cc3cc(C(F)(F)P(=O)(O)O)ccc3s2)C1 (relative stereo) [Compound 152, ((2-(((5S,8S,10aR)-3-acetyl-8-((rel-trans)-4-cyano-3-methyl-3-phenylpyrrolidine-1-carbonyl)-6-oxodecahydropyrrolo[1,2-a][1,5]diazocin-5-yl)carbamoyl)benzo[b]thiophen-5-yl)difluoromethyl)phosphonic acid] | ≤ 300 nM | 1000 to 10000 nM |
| C[C@@H](C(=O)N1CC[C@H]2CC[C@@H](C(=O)N(C)c3ccccc3)N2C(=O)[C@@H](NC(=O)c2cc3cc(C(F)(F)P(=O)(O)O)ccc3[nH]2)C1)c1ccccc1 [Compound 217, (difluoro(2-(((5S,8S,10aR)-8-(methyl(phenyl)carbamoyl)-6-oxo-3-((R)-2-phenylpropanoyl)decahydropyrrolo[1,2 a][1,5]diazocin-5-yl)carbamoyl)-1H-indol-5-yl)methyl)phosphonic acid] | 300 to 3000 nM | > 10000 nM |
| Cc1cc(Cl)cc(C(=O)N2CC[C@H](NC(=O)c3ccc4ccc(C(F)P(=O)(O)O)cc4c3)C(=O)N3[C@H](CC[C@H]3C(=O)N3CCOCC3)C2)c1 (stereo partly drawn) [Compound 389, ((7-(((5S,8S,10aR)-2-(3-chloro-5-methyl-benzoyl)-8-(morpholine-4-carbonyl)-6-oxodecahydropyrrolo [1,2-a][1,4]diazocin-5-yl)carbamoyl)naphthalen-2-yl)fluoromethyl) phosphonic acid] | 300 to 3000 nM | > 10000 nM |
| Cc1ccc2onc(C(=O)N3CC[C@H]4CC[C@@H](C(=O)N5CCOCC5)N4C(=O)[C@@H](NC(=O)c4cc(C#N)c5ccc(CP(=O)(O)O)cc5c4)C3)c2c1 [Compound 378, ((5-cyano-7-(((5S,8S, 10aR)-3-(5-methylbenzo[d]isoxazole-3-carbonyl)-8-(morpholine-4-carbonyl)-6-oxodecahydropyrrolo [1,2-a][1,5]diazocin-5-yl)carbamoyl)naphthalen-2-yl)methyl) phosphonic acid] | 300 to 3000 nM | > 10000 nM |
| N#Cc1cccc(C2CN(C(=O)[C@@H]3CC[C@@H]4CCN(Cc5ncccn5)C[C@H](NC(=O)c5cc6cc(C(F)P(=O)(O)O)ccc6s5)C(=O)N43)C2)n1 (stereo partly drawn) [Compound 398, ((2-(((5S,8S,10aR)-8-(3-(6-cyanopyridin-2-yl)azetidine-1-carbonyl)-6-oxo-3-(pyrimidin-2-ylmethyl)decahydropyrrolo[1,2-a][1,5]diazocin-5-yl)carbamoyl)benzo[b]thiophen-5-yl)fluoromethyl)phosphonic acid] | 3000 to 30000 nM | ≤ 100 nM |
| CC(=O)N1CC[C@H]2CC[C@@H](C(=O)Nc3ccc(-c4ccccc4)cc3CC(N)=O)N2C(=O)[C@@H](NC(=O)c2cc3cc(C(F)(F)P(=O)(O)O)ccc3s2)C1 [Compound 177, ((2-(((5S,8S,10aR)-3-acetyl-8-((3-(2-amino-2-oxoethyl)-[1,1′-biphenyl]-4-yl)carbamoyl)-6-oxodecahydropyrrolo[1,2-a][1,5]diazocin-5-yl)carbamoyl)benzo[b]thiophen-5-yl)difluoromethyl)phosphonic acid] | 300 to 3000 nM | ≤ 100 nM |
| CC(=O)N1CC[C@H]2CC[C@@H](C(=O)N(C)c3ccc(C(C)(C)c4ccccc4)cc3)N2C(=O)[C@@H](NC(=O)c2cc3cc(C(F)(F)P(=O)(O)O)ccc3s2)C1 [Compound 155, ((2-(((5S,8S,10aR)-3-acetyl-8-(methyl(4-(2-phenylpropan-2-yl)phenyl)carbamoyl)-6-oxodecahydropyrrolo[1,2-a][1,5]diazocin-5-yl)carbamoyl)benzo[b]thiophen-5-yl)difluoromethyl)phosphonic acid] | 300 to 3000 nM | 1000 to 10000 nM |
| CCN(C(=O)[C@@H]1CC[C@@H]2CCN(C(C)=O)C[C@H](NC(=O)c3cc4cc(C(F)(F)P(=O)(O)O)ccc4[nH]3)C(=O)N21)c1ccccc1 [Compound 169, ((2-(((5S,8S,10aR)-3-acetyl-8-(ethyl(phenyl)carbamoyl)-6-oxodecahydropyrrolo[1,2-a][1,5]diazocin-5-yl)carbamoyl)-1H-indol-5-yl)difluoromethyl)phosphonic acid] | 300 to 3000 nM | 1000 to 10000 nM |
| CC(=O)N1CC[C@H]2CC[C@@H](C(=O)N3C[C@@H](C#N)C[C@@H]3Cc3ccccc3)N2C(=O)[C@@H](NC(=O)c2cc3cc(C(F)(F)P(=O)(O)O)ccc3s2)C1 [Compound 42, ((2-(((5S,8S,10aR)-3-acetyl-8-((2R,4S)-2-benzyl-4-cyanopyrrolidine-1-carbonyl)-6-oxodecahydropyrrolo[1,2-a][1,5]diazocin-5-yl)carbamoyl)benzo[b]thiophen-5-yl)difluoromethyl)phosphonic acid] | 300 to 3000 nM | 1000 to 10000 nM |
| O=C(N[C@H]1CS(=O)(=O)CC[C@H]2CC[C@@H](C(=O)N3CC(c4cccnc4)C3)N2C1=O)c1cc2cc(C(F)(F)P(=O)(O)O)ccc2s1 [Compound 404, ((2-(((5R,8S,10aR)-3,3-dioxido-6-oxo-8-(3-(pyridin-3-yl)azetidine-1-carbonyl)octahydro-4H-pyrrolo[2,1-d][1,5]thiazocin-5-yl)carbamoyl)benzo[b]thiophen-5-yl)difluoromethyl) phosphonic acid] | 3000 to 30000 nM | ≤ 100 nM |
| C[C@@H](Cc1ccccc1)C(=O)N1CC[C@H]2CC[C@@H](C(=O)N3CCCC3)N2C(=O)[C@@H](NC(=O)c2cc3cc(C(F)(F)P(=O)(O)O)ccc3s2)C1 [Compound 258, (difluoro(2-(((5S,8S,10aR)-3-((S)-2-methyl-3-phenylpropanoyl)-6-oxo-8-(pyrrolidine-1-carbonyl)decahydropyrrolo[1,2-a][1,5]diazocin-5-yl)carbamoyl)benzo[b]thiophen-5-yl)methyl)phosphonic acid] | 300 to 3000 nM | 1000 to 10000 nM |
